The subject of one assay is S. aureus 1840. Nature of the assay: Minimal inhibitory concentration (M.I.C.), agar dilution method. It is filed as cell-based, Staphylococcus aureus. The following applies: TSA, inoculum 10^7 /ml. From the text: (§1) (a) Determination of minimal inhibitory concentrations (Tables 1 to 8):
(§2) Procedure: agar dilution method
(In general: Agar dilution tests growth on a series of plates holding different concentrations.)

For another assay, the system named is S. aureus 209P. Described as above. The class given is cell-based, Staphylococcus aureus. The following applies: TSA, inoculum 10^7 /ml.
From the text: as §1, §2

The next assay has as its system E. coli NIHJ JC-2. The description is as above. It is filed as cell-based, Escherichia coli. The following applies: TSA, inoculum 10^7 /ml.
From the text: as §1, §2

For another assay, the system named is E. coli T-7. The description is as above. The class given is cell-based, Escherichia coli. The following applies: TSA, inoculum 10^7 /ml.
From the text: as §1, §2

In another assay the test system is E. coli 0-111. Described as above. It is filed as cell-based, Escherichia coli. The following applies: TSA, inoculum 10^7 /ml. The essentials: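 MIC against E. coli O-111 was determined by agar dilution.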
A further assay deals with K. pneumoniae DT. The assay is described as above. It is filed as cell-based, Klebsiella pneumoniae. The note with it: TSA, inoculum 10^7 /ml.
From the text: as §1, §2

The subject of the next assay is K. pneumoniae GN 3835. Described as above. The class given is cell-based, Klebsiella pneumoniae. The following applies: TSA, inoculum 10^7 /ml.
From the text: as §1, §2

The next assay has as its system S. marcescens IFO 12648. The description is as above. The class given is cell-based, Serratia marcescens. The following applies: TSA, inoculum 10^7 /ml.
From the text: as §1, §2

The next assay deals with S. marcescens TN 24. The assay is described as above. The following applies: TSA, inoculum 10^7 /ml. It is filed as cell-based, Serratia marcescens.
From the text: as §1, §2

In a further assay the test system is P. vulgaris GN 4413. The assay is described as above. The note with it: TSA, inoculum 10^7 /ml. It is filed as cell-based, Proteus vulgaris.
From the text: as §1, §2

A further assay has as its system P. vulgaris IFO 3988. Described as above. The class given is cell-based, Proteus vulgaris. The note with it: TSA, inoculum 10^7 /ml.
From the text: as §1, §2

For the next assay, the system named is P. mirabilis GN 4359. The description is as above. The class given is cell-based, Proteus mirabilis. The note with it: TSA, inoculum 10^7 /ml.
From the text: as §1, §2

A further assay concerns P. morganii IFO 3168. Described as above. It is filed as cell-based, Proteus morganii. The note with it: TSA, inoculum 10^7 /ml.
From the text: as §1, §2

Another assay relates to P. rettgeri GN4733. Described as above. The class given is cell-based, Proteus rettgeri. The note with it: TSA, inoculum 10^7 /ml.
From the text: as §1, §2

The subject of another assay is P. rettgeri TN 338. Described as above. It is filed as cell-based, Proteus rettgeri. The following applies: TSA, inoculum 10^7 /ml.
From the text: as §1, §2

Another assay deals with E. cloacae TN 1282. Described as above. The class given is cell-based, Enterobacter cloacae. The following applies: TSA, inoculum 10^7 /ml.
From the text: as §1, §2

Another assay has as its system C. freundii GN 1706. Described as above. It is filed as cell-based, Citrobacter freundii. The following applies: TSA, inoculum 10^7 /ml.
From the text: as §1, §2

For the next assay, the system named is C. freundii GN 99. The assay is described as above. The class given is cell-based, Citrobacter freundii. The following applies: TSA, inoculum 10^7 /ml.
From the text: as §1, §2

Another assay deals with Escherichia coli 0-111. The assay can be described thus: Therapeutic effects in infected mice. The following applies: Escherichia coli, 0111, sc, 168 h. It is filed as in vivo, Male mice ICR/SLC. Here is the method:
The preliminary therapeutic effects of some cephalosporin derivatives of this invention as determined in infected mice were as follows.
Determination of therapeutic effects in infected mice
Test animals: Male mice ICR/SLC
Each compound was administered to a group of 5 animals.
Route of infection: Intraperitoneally infected with Escherichia coli 0-111
Period of observation: 7 days.
Method of administration:
One mg of each test compound was dissolved in 100 ml of sterile physiological saline and a dilution series of the same solution was prepared. These solutions were respectively injected subcutaneously into mice immediately after infection, in a single dose of 0.2 ml each.

Molecules are shown by their SMILES.

Take `O=C(Cc1cccs1)N[C@@H]1C(=O)N2C(C(=O)[O-])=C(C[n+]3ccccc3)CS[C@H]12` [Cephaloridine, 7-(2-thienylacetamido)-3-(1-pyridyl)methyl-3-cephem-4-carboxylic acid betaine, reference compound]: the “minimal inhibitory concentration (M.I.C.)” value with S. aureus 1840 is 0.39; in the assay with S. aureus 209P, 0.05; in the assay with E. coli NIHJ JC-2, 3.13; in the assay with E. coli T-7 it was > 100; in the assay with E. coli 0-111, 1.56; in the assay with K. pneumoniae DT, 1.56. For the same compound, the “minimal inhibitory concentration (M.I.C.)” value is 12.5 with K. pneumoniae GN 3835; > 100 with S. marcescens IFO 12648; > 100 in the assay on S. marcescens TN 24; > 100 with P. vulgaris GN 4413; 6.25 in the assay on P. vulgaris IFO 3988; 6.25 with P. mirabilis GN 4359. For the same compound, the “minimal inhibitory concentration (M.I.C.)” value is reported as > 100 in the assay with P. morganii IFO 3168; > 100 in the assay on P. rettgeri GN4733; 1.56 with P. rettgeri TN 338; > 100 with E. cloacae TN 1282; > 100 in the assay on C. freundii GN 1706; 50 in the assay on C. freundii GN 99. In the assay on Escherichia coli 0-111, this compound displayed an ED50 of 2 mg/kg.
For `CNC(=O)O/N=C(\C(=O)NC1C(=O)N2C(C(=O)O)=C(COC(N)=O)CSC12)c1csc(=N)[nH]1` (stereo not drawn) [Example II - 3, sodium 7-[2-(2-imino-4-thiazolin-4-yl)-2-methylcarbamoyloximinoacetamido]-3-carbamoyloxymethyl-3-cephem-4-carboxylate (syn-isomer)], the “minimal inhibitory concentration (M.I.C.)” value is recorded as 3.13 with S. aureus 1840; 3.13 in the assay on S. aureus 209P; 0.1 with E. coli NIHJ JC-2; 0.39 in the assay on E. coli T-7; 0.024 with E. coli 0-111; 0.024 in the assay with K. pneumoniae DT. In addition, the “minimal inhibitory concentration (M.I.C.)” value turned out to be 0.1 in the assay on K. pneumoniae GN 3835; 3.13 with S. marcescens IFO 12648; 6.25 in the assay on S. marcescens TN 24; 50 with P. vulgaris GN 4413; 0.05 in the assay with P. vulgaris IFO 3988; 0.05 in the assay on P. mirabilis GN 4359. Moreover, the “minimal inhibitory concentration (M.I.C.)” value is on record as 0.78 with P. morganii IFO 3168; 0.1 in the assay with P. rettgeri GN4733; ≤ 0.012 with P. rettgeri TN 338; 6.25 in the assay on E. cloacae TN 1282; 0.2 in the assay on C. freundii GN 1706; 0.1 in the assay with C. freundii GN 99. Moreover, the 50% effect level in the assay on Escherichia coli 0-111 (ED50) was put at a dose of 0.016 mg/kg.
Consider `CCNC(=O)O/N=C(\C(=O)NC1C(=O)N2C(C(=O)O)=C(C)CSC12)c1csc(=N)[nH]1` (centres unmarked) [Example II - 11], for which the “minimal inhibitory concentration (M.I.C.)” value worked out at 25 with S. aureus 1840; 25 with S. aureus 209P; 6.25 with E. coli NIHJ JC-2; 12.5 in the assay on E. coli T-7; 1.56 with E. coli 0-111; 1.56 with K. pneumoniae DT. Further, the “minimal inhibitory concentration (M.I.C.)” value was found to be 3.13 in the assay with K. pneumoniae GN 3835; 100 in the assay with S. marcescens IFO 12648; 100 in the assay with S. marcescens TN 24; 50 with P. vulgaris GN 4413; 3.13 in the assay on P. vulgaris IFO 3988; 1.56 in the assay with P. mirabilis GN 4359. The “minimal inhibitory concentration (M.I.C.)” value in the assay with P. morganii IFO 3168 was 25; in the assay with P. rettgeri GN4733 it was 0.39; in the assay on P. rettgeri TN 338, 0.05; with E. cloacae TN 1282, 25; in the assay on C. freundii GN 1706, 12.5; with C. freundii GN 99 it was 6.25.
Consider `CCCNC(=O)O/N=C(\C(=O)NC1C(=O)N2C(C(=O)O)=C(COC(N)=O)CSC12)c1csc(=N)[nH]1` (centres unmarked) [Example II - 13], for which the “minimal inhibitory concentration (M.I.C.)” value in the assay on S. aureus 1840 came out at 3.13; with S. aureus 209P, 1.56; in the assay on E. coli NIHJ JC-2, 0.2; with E. coli T-7, 1.56; in the assay on E. coli 0-111, 0.05; in the assay on K. pneumoniae DT, 0.05. Besides, the “minimal inhibitory concentration (M.I.C.)” value in the assay with K. pneumoniae GN 3835 worked out at 0.2; in the assay with S. marcescens IFO 12648, 6.25; with S. marcescens TN 24 it was 25; in the assay with P. vulgaris GN 4413, 50; in the assay with P. vulgaris IFO 3988 it was 0.39; with P. mirabilis GN 4359, 0.1. The “minimal inhibitory concentration (M.I.C.)” value in the assay on P. morganii IFO 3168 was 3.13; in the assay on P. rettgeri GN4733 it was 0.1; with P. rettgeri TN 338, ≤ 0.012; with E. cloacae TN 1282, 6.25; in the assay with C. freundii GN 1706, 0.78; in the assay with C. freundii GN 99, 0.1.
In the case of `CNC(=O)O/N=C(\C(=O)NC1C(=O)N2C(C(=O)O)=C(CSc3nc(C)ns3)CSC12)c1csc(=N)[nH]1` (centres unmarked) [Example IV - 8], the “minimal inhibitory concentration (M.I.C.)” value is 1.56 in the assay on S. aureus 1840; 0.78 in the assay with S. aureus 209P; 1.56 in the assay with E. coli NIHJ JC-2; 6.25 in the assay with E. coli T-7; 0.39 in the assay with E. coli 0-111; 0.39 in the assay on K. pneumoniae DT. Further, the “minimal inhibitory concentration (M.I.C.)” value is given as 3.13 in the assay with K. pneumoniae GN 3835; 6.25 with S. marcescens IFO 12648; 6.25 in the assay with S. marcescens TN 24; 6.25 in the assay on P. vulgaris GN 4413; 0.39 in the assay with P. vulgaris IFO 3988; 0.78 in the assay on P. mirabilis GN 4359. Moreover, the “minimal inhibitory concentration (M.I.C.)” value is given as 3.13 with P. morganii IFO 3168; 0.78 with P. rettgeri GN4733; ≤ 0.2 in the assay on P. rettgeri TN 338; 6.25 in the assay with E. cloacae TN 1282; 3.13 in the assay with C. freundii GN 1706; 0.78 in the assay on C. freundii GN 99.
As for `CC(=O)OCC1=C(C(=O)O)N2C(=O)C(NC(=O)/C(=N\OC(=O)NC3CCCCC3)c3csc(=N)[nH]3)C2SC1` (centres unmarked) [Example II - 24], the “minimal inhibitory concentration (M.I.C.)” value is listed as 1.56 in the assay with S. aureus 1840; 0.78 in the assay on S. aureus 209P; 0.1 with E. coli NIHJ JC-2; 1.56 in the assay on E. coli T-7; 0.024 in the assay with E. coli 0-111; 0.05 in the assay with K. pneumoniae DT. For the same compound, the “minimal inhibitory concentration (M.I.C.)” value is 0.39 in the assay on K. pneumoniae GN 3835; 6.25 with S. marcescens IFO 12648; 12.5 in the assay with S. marcescens TN 24; 25 in the assay with P. vulgaris GN 4413; 0.1 with P. vulgaris IFO 3988; 0.1 in the assay on P. mirabilis GN 4359. The “minimal inhibitory concentration (M.I.C.)” value with P. morganii IFO 3168 was 0.39; in the assay with P. rettgeri GN4733, 0.05; in the assay with P. rettgeri TN 338, ≤ 0.012; in the assay with E. cloacae TN 1282 it was 3.13; in the assay with C. freundii GN 1706 it was 0.78; with C. freundii GN 99, 0.39.

The term ED50 denotes the dose that gives a 50% effect, or the effect in half of the subjects.
